Data: patent publication US9981940B2, “Aryl sulfide derivatives and aryl sulfoxide derivatives as acaricides and insecticides” (BAYER CROPSCIENCE AKTIENGESELLSCHAFT, priority 2013, dated 2018)

Legend:
[1] = log P by HPLC (OECD Guideline 117), method [a] acidic range; type: physicochemical; conditions: for logP[a]: HPLC, method [a] acidic range
Procedure: (§1) The log P values were determined analogously to OECD Guideline 117 (EC Directive 92/69/EEC) by HPLC (high-performance liquid chromatography) using reversed-phase columns (C 18), by the following methods:
[a] The LC-MS determination in the acidic range is effected at pH 2.7 with 0.1% aqueous formic acid and acetonitrile (contains 0.1% formic acid) as eluents; linear gradient from 10% acetonitrile to 95% acetonitrile.

[2] = log P by HPLC (OECD Guideline 117), method [b] neutral range; type: physicochemical; conditions: HPLC; for logP[b]: method [b] neutral range; for chromatographic logP: reversed-phase C18 HPLC column, neutral range, pH 7.8
Procedure: as §1
[b] The LC-MS determination in the neutral range is effected at pH 7.8 with 0.001 molar aqueous ammonium hydrogencarbonate solution and acetonitrile as eluents; linear gradient from 10% acetonitrile to 95% acetonitrile.

[3] = reversed-phase C18 HPLC column, pH 2.7, HPLC, acidic range, pH 2.7, read-out: log P[a]
[4] = reversed-phase C18 HPLC column, pH 2.7, HPLC method [a], acidic range, read-out: logP[a]

Row | Compound | logP[a] [1] | logP[b] [2] | also measured
1 | COc1ccc(-n2nc(C(F)(F)F)n(C3CC3)c2=O)cc1[S+]([O-])CC(F)(F)F (stereo not drawn) [Example 53] | 3.03 | 2.93 | 
2 | Cc1ccc(SSc2cc(Br)ccc2C)cc1Br [4-Bromo-2-[(3-bromo-4-methylphenyl)disulphanyl]-1-methylbenzene] |  |  | chromatographic logP [1, 3]: > 7.36; chromatographic logP [2]: > 7.36
3 | N#Cc1cc(F)c(-n2nc(C(F)(F)F)n(C3CC3)c2=O)cc1[S+]([O-])CC(F)(F)F (stereo not drawn) [Example 47, 4-[4-Cyclopropyl-5-oxo-3-(trifluoromethyl)-4,5-dihydro-1H-1,2,4-triazol-1-yl]-5-fluoro-2-[(2,2,2-trifluoroethyl)sulphinyl]benzonitrile] |  |  | chromatographic logP [1, 4]: 2.92; chromatographic logP [1, 3]: 2.92; chromatographic logP [2]: 2.84
4 | Nc1cc(SCC(F)(F)F)c(Br)cc1F [IVa-14, 4-Bromo-2-fluoro-5-[(2,2,2-trifluoroethyl)sulphanyl]aniline] |  |  | chromatographic logP [1, 3]: 3.15; chromatographic logP [2]: 3.12
5 | COC(=O)c1nn(-c2cc(SSc3cc(-n4nc(C(=O)OC)n(C(C)C)c4=O)c(F)cc3C)c(C)cc2F)c(=O)n1C(C)C [XXVIII-1, Dimethyl 1,1′-[disulphanediylbis(6-fluoro-4-methylbenzene-3,1-diyl)]bis(4-isopropyl-5-oxo-4,5-dihydro-1H-1,2,4-triazole-3-carboxylate)] |  |  | chromatographic logP [1, 3]: 4.11
6 | COc1nn(-c2ccc(C(F)(F)F)c([S+]([O-])CC(F)(F)F)c2)c(=O)n1C (stereo not drawn) [Example 96, 5-Methoxy-4-methyl-2-{3-[(2,2,2-trifluoroethyl)sulphinyl]-4-(trifluoromethyl)phenyl}-2,4-dihydro-3H-1,2,4-triazol-3-one] |  |  | chromatographic logP [1, 4]: 2.89; chromatographic logP [1, 3]: 2.89; chromatographic logP [2]: 2.83
7 | Cc1ccc(-n2nc(OCC(C)C)n(C)c2=O)cc1[S+]([O-])CC(F)(F)F (stereo not drawn) [Example 167] | 3.31 | 3.26 | 
8 | Cc1cc(F)c(-n2nc(C(=O)O)n(C(C)C)c2=O)cc1SCC(F)(F)F [1-{2-Fluoro-4-methyl-5-[(2,2,2-trifluoroethyl)sulphanyl]phenyl}-4-isopropyl-5-oxo-4,5-dihydro-1H-1,2,4-triazole-3-carboxylic acid] |  |  | chromatographic logP [1, 3]: 2.16
9 | COc1nn(-c2ccc(C(F)(F)F)c([S+]([O-])CC(F)(F)F)c2)c(=O)n1C1CC1 (stereo not drawn) [Example 147] | 3.27 | 3.19 | 
10 | CCCOC1=CC(=O)N(c2cc([S+]([O-])CC(F)(F)F)c(C)cc2F)C1 (stereo not drawn) [Example 333] | 2.57 | 2.52 | 
11 | Cc1cc(F)c(NC(=S)NCC(F)(F)F)cc1[S+]([O-])CC(F)(F)F (stereo not drawn) [IIb-1, 1-{2-Fluoro-4-methyl-5-[(2,2,2-trifluoroethyl)sulphinyl]phenyl}-3-(2,2,2-trifluoroethyl)thiourea] |  |  | chromatographic logP [1, 3]: 2.34; chromatographic logP [2]: 2.3
12 | Cc1cc(F)c(-n2nnn(-c3ccc(C(F)(F)F)cc3)c2=O)cc1[S+]([O-])CC(F)(F)F (racemic) [Example 445] | 3.75 | 3.72 | 
13 | Cc1ccc(-n2nc(OC(C)C)n(C)c2=O)cc1[S+]([O-])CC(F)(F)F (stereo not drawn) [Example 163] | 2.87 | 2.80 | 
14 | CC(C)n1c(Br)n[nH]c1=O [5-Bromo-4-isopropyl-2,4-dihydro-3H-1,2,4-triazol-3-one] |  |  | chromatographic logP [1, 3]: 0.86; chromatographic logP [2]: 0.83
15 | N#Cc1cc(F)c(Br)cc1SCC(F)(F)F [VIIa-18, 4-Bromo-5-fluoro-2-[(2,2,2-trifluoroethyl)sulphanyl]benzonitrile] |  |  | chromatographic logP [1, 3]: 3.32; chromatographic logP [2]: 3.26
16 | COc1nn(-c2ccc(Br)c(SCC(F)(F)F)c2)c(=O)n1C [Example 168] | 3.60 | 3.54 | 
17 | N#Cc1cc(F)c(-n2nc(C(F)(F)F)oc2=O)cc1[S+]([O-])CC(F)(F)F (racemic) [Example 309] | 2.86 | 2.80 | 
18 | Cc1cc(C)c([S+]([O-])CC(F)(F)F)cc1-n1nnn(C)c1=O (racemic) [Example 297] | 1.96 | 1.96 | 
19 | Cc1cc(F)c(-n2nn[nH]c2=O)cc1SCC(F)(F)F [Example 299, 1-{2-Fluoro-4-methyl-5-[(2,2,2-trifluoroethyl)sulphanyl]phenyl}-1,4-dihydro-5H-tetrazol-5-one] |  |  | chromatographic logP [1, 4]: 2.45; chromatographic logP [1, 3]: 2.45; chromatographic logP [2]: 0.9
20 | Cc1ccc(-n2nc(OC3CCOC3)n(C)c2=O)cc1SCC(F)(F)F (stereo not drawn) [Example 156] | 3.27 | 3.27 | 
21 | N#Cc1cc(F)c(-n2nc(C(F)(F)F)n(C3CC3)c2=O)cc1F [XXIV-1, 4-[4-Cyclopropyl-5-oxo-3-(trifluoromethyl)-4,5-dihydro-1H-1,2,4-triazol-1-yl]-2,5-difluorobenzonitrile] |  |  | log P[a] ([1]; pH 2.7): 2.90; chromatographic logP ([1]; pH 2.7, log P[a]): 2.91

The next lines start with results.

Row | logP[a] [1] | logP[b] [2] | Compound | also measured
22 | 2.94 | 3.05 | C=CCSc1nn(-c2cc([S+]([O-])CC(F)(F)F)c(C)cc2F)c(=O)n1CC=C (stereo not drawn) [Example 432] | 
23 | 2.11 | 2.07 | CCn1c(OC)nn(-c2cc([S+]([O-])CC(F)(F)F)c(C)cc2F)c1=O (stereo not drawn) [Example 181] | 
24 | 3.55 | 3.47 | Cc1cc(C)c(-n2ncn(Cc3ccccc3)c2=O)cc1SCC(F)(F)F [Example 373] | 
25 | 3.55 | 3.49 | CC=Cc1nn(-c2cc(SCC(F)(F)F)c(C)cc2F)c(=O)n1C1CC1 [Example 81] | 
26 | 4.37 | 4.29 | CCCSc1nn(-c2cc(SCC(F)(F)F)c(C)cc2F)c(=O)n1CC [Example 426] | 
27 | 3.08 | 3.00 | Cc1cc(F)c(-n2nc(Br)n(Cc3ccccc3)c2=O)cc1[S+]([O-])CC(F)(F)F (stereo not drawn) [Example 443] | 
28 | 3.96 | 3.89 | O=c1n(-c2cc(SCC(F)(F)F)c(Cl)cc2F)nc(OCC(F)(F)F)n1C1CC1 [Example 186] | 
29 | 1.98 | 1.97 | CCc1nn(-c2cc([S+]([O-])CC(F)(F)F)c(C)cc2F)c(=O)n1-c1cccnc1 (racemic) [Example 354] | 
30 | 2.21 | 2.15 | COc1nn(-c2cc([S+]([O-])CC(F)(F)F)c(Br)cc2F)c(=O)n1C (stereo not drawn) [Example 174] | 
31 | 3.76 | 3.70 | CCOc1nn(-c2ccc(C)c(SCC(F)(F)F)c2)c(=O)n1OC [Example 227] | 
32 | 3.02 | 2.98 | COC1=CC(=O)N(c2cc(SCC(F)(F)F)c(C)cc2Cl)C1 [Example 319] | 
33 | 1.89 | 1.84 | Cc1cc(F)c(-n2nc(OC3CCOC3)n(C)c2=O)cc1[S+]([O-])CC(F)(F)F (stereo not drawn) [Example 161] | 
34 | 3.47 | 3.40 | N#Cc1cc(F)c(-n2nc(C(F)(F)F)oc2=O)cc1SCC(F)(F)F [Example 308] | 
